Measured values: ChEMBL document CHEMBL4346757, “Synthesis and biological evaluation of 7-methoxy-1-(3,4,5-trimethoxyphenyl)-4,5-dihydro-2H-benzo[e]indazoles as new colchicine site inhibitors” (Bioorg Med Chem Lett, 2019)

Columns and labels:
Format in all cases: functional
[1] = tested on: RXF 393; experiment: Growth inhibition of human RXF393 cells assessed as cell growth at 0.1 uM after 48 hrs by SRB assay relative to control; details: RXF 393, 48 h, read-out: Activity
[2] = tested on: SW-620; experiment: Growth inhibition of human SW620 cells assessed as cell growth at 0.01 uM after 48 hrs by SRB assay relative to control; details: SW-620, 48 h, read-out: Activity
[3] = tested on: SF-268; experiment: Growth inhibition of human SF268 cells assessed as cell growth at 1 uM after 48 hrs by SRB assay relative to control; details: SF-268, 48 h, read-out: Activity
[4] = tested on: NCI-H460; experiment: Growth inhibition of human NCI-H460 cells assessed as cell growth at 0.01 uM after 48 hrs by SRB assay relative to control; details: NCI-H460, 48 h, read-out: Activity
[5] = tested on: 786-0; experiment: Growth inhibition of human 786-0 cells assessed as cell growth at 10 uM after 48 hrs by SRB assay relative to control; details: 786-0, 48 h, read-out: Activity
[6] = tested on: SK-MEL-2; experiment: Growth inhibition of human SK-MEL-2 cells assessed as cell growth at 100 uM after 48 hrs by SRB assay relative to control; details: SK-MEL-2, 48 h, read-out: Activity
[7] = tested on: NCI-H23; experiment: Growth inhibition of human NCI-H23 cells assessed as cell growth at 0.1 uM after 48 hrs by SRB assay relative to control; details: NCI-H23, 48 h, read-out: Activity
[8] = tested on: A498; experiment: Growth inhibition of human A498 cells assessed as cell growth at 10 uM after 48 hrs by SRB assay relative to control; details: A498, 48 h, read-out: Activity
[9] = tested on: UACC-257; experiment: Growth inhibition of human UACC257 cells assessed as cell growth at 1 uM after 48 hrs by SRB assay relative to control; details: UACC-257, 48 h, read-out: Activity
[10] = tested on: RXF 393; experiment: Cytotoxicity against human RXF393 cells assessed as growth inhibition after 48 hrs by SRB assay; details: RXF 393, 48 h
[11] = tested on: K562; experiment: Growth inhibition of human K562 cells assessed as cell growth at 0.1 uM after 48 hrs by SRB assay relative to control; details: K562, 48 h, read-out: Activity
[12] = tested on: HOP-62; experiment: Growth inhibition of human HOP62 cells assessed as cell growth at 0.1 uM after 48 hrs by SRB assay relative to control; details: HOP-62, 48 h, read-out: Activity
[13] = tested on: MCF7; experiment: Growth inhibition of human MCF7 cells assessed as cell growth at 100 uM after 48 hrs by SRB assay relative to control; details: MCF7, 48 h, read-out: Activity
[14] = tested on: MDA-MB-231; experiment: Growth inhibition of human MDA-MB-231/ATCC cells assessed as cell growth at 0.1 uM after 48 hrs by SRB assay relative to control; details: MDA-MB-231, 48 h, read-out: Activity
[15] = tested on: RXF 393; experiment: Growth inhibition of human RXF393 cells assessed as cell growth at 1 uM after 48 hrs by SRB assay relative to control; details: RXF 393, 48 h, read-out: Activity
[16] = tested on: OVCAR-8; experiment: Cytotoxicity against human OVCAR8 cells assessed as growth inhibition after 48 hrs by SRB assay; details: OVCAR-8, 48 h
[17] = tested on: NCI-H460; experiment: Growth inhibition of human NCI-H460 cells assessed as cell growth at 1 uM after 48 hrs by SRB assay relative to control; details: NCI-H460, 48 h, read-out: Activity
[18] = tested on: OVCAR-3; experiment: Cytotoxicity against human OVCAR3 cells assessed as growth inhibition after 48 hrs by SRB assay; details: OVCAR-3, 48 h
[19] = tested on: HOP-92; experiment: Growth inhibition of human HOP92 cells assessed as cell growth at 1 uM after 48 hrs by SRB assay relative to control; details: HOP-92, 48 h, read-out: Activity
[20] = tested on: UACC-62; experiment: Growth inhibition of human UACC62 cells assessed as cell growth at 0.01 uM after 48 hrs by SRB assay relative to control; details: UACC-62, 48 h, read-out: Activity
[21] = tested on: HOP-62; experiment: Cytotoxicity against human HOP62 cells assessed as growth inhibition after 48 hrs by SRB assay; details: HOP-62, 48 h
[22] = tested on: U-251; experiment: Growth inhibition of human U251 cells assessed as cell growth at 10 uM after 48 hrs by SRB assay relative to control; details: U-251, 48 h, read-out: Activity
[23] = tested on: SF-539; experiment: Growth inhibition of human SF539 cells assessed as cell growth at 10 uM after 48 hrs by SRB assay relative to control; details: SF-539, 48 h, read-out: Activity
[24] = tested on: MCF7; experiment: Growth inhibition of human MCF7 cells assessed as cell growth at 0.01 uM after 48 hrs by SRB assay relative to control; details: MCF7, 48 h, read-out: Activity
[25] = tested on: A498; experiment: Growth inhibition of human A498 cells assessed as cell growth at 100 uM after 48 hrs by SRB assay relative to control; details: A498, 48 h, read-out: Activity
[26] = tested on: OVCAR-3; experiment: Growth inhibition of human OVCAR3 cells assessed as cell growth at 1 uM after 48 hrs by SRB assay relative to control; details: OVCAR-3, 48 h, read-out: Activity
[27] = tested on: MDA-MB-435; experiment: Growth inhibition of human MDA-MB-435 cells assessed as cell growth at 10 uM after 48 hrs by SRB assay relative to control; details: MDA-MB-435, 48 h, read-out: Activity
[28] = tested on: SF-295; experiment: Growth inhibition of human SF295 cells assessed as cell growth at 0.1 uM after 48 hrs by SRB assay relative to control; details: SF-295, 48 h, read-out: Activity
[29] = tested on: SK-MEL-28; experiment: Growth inhibition of human SK-MEL-28 cells assessed as cell growth at 0.01 uM after 48 hrs by SRB assay relative to control; details: SK-MEL-28, 48 h, read-out: Activity
[30] = tested on: UACC-257; experiment: Growth inhibition of human UACC257 cells assessed as cell growth at 10 uM after 48 hrs by SRB assay relative to control; details: UACC-257, 48 h, read-out: Activity
[31] = tested on: SK-OV-3; experiment: Growth inhibition of human SKOV3 cells assessed as cell growth at 10 uM after 48 hrs by SRB assay relative to control; details: SK-OV-3, 48 h, read-out: Activity
[32] = read-out: LC50 (the source's name)
[33] = read-out: pLC50 (the source's name) (converted)

COc1ccc2c(c1)CCc1n[nH]c(-c3cc(OC)c(OC)c(OC)c3)c1-2
growth at 0.1 µM [1]: -2% | growth at 0.01 µM [2]: 16% | growth at 1 µM [3]: 29% | growth at 0.01 µM [4]: 3% | growth at 10 µM [5]: 3% | growth at 100 µM [6]: -51% | growth at 0.1 µM [7]: 5% | growth at 10 µM [8]: -17% | growth at 1 µM [9]: 62% | GI50 ([10]; read-out: GI50): < 0.01 µM | CC50 [10, 32]: 51.3 µM | GI50 ([10]; read-out: pGI50 (converted)): < 0.01 µM | CC50 [10, 33]: 51.3 µM | growth at 0.1 µM [11]: 19% | growth at 0.1 µM [12]: 6% | growth at 100 µM [13]: -38% | growth at 0.1 µM [14]: 29% | growth at 1 µM [15]: 6% | GI50 ([16]; read-out: GI50): < 0.01 µM | LC50 (concentration killing 50% of cells) ([16]; read-out: LC50): > 100 µM | TGI ([16]; read-out: TGI): 15.4 µM | GI50 ([16]; read-out: pGI50 (converted)): < 0.01 µM | LC50 (concentration killing 50% of cells) ([16]; read-out: pLC50 (converted)): > 100 µM | TGI ([16]; read-out: pTGI (converted)): 15.5 µM | growth at 1 µM [17]: 2% | GI50 ([18]; read-out: GI50): < 0.01 µM | LC50 (50% lethal concentration) ([18]; read-out: LC50): 75.5 µM | TGI ([18]; read-out: TGI): 14.7 µM | GI50 ([18]; read-out: pGI50 (converted)): < 0.01 µM | LC50 (50% lethal concentration) ([18]; read-out: pLC50 (converted)): 75.9 µM | TGI ([18]; read-out: pTGI (converted)): 14.8 µM | growth at 1 µM [19]: 27% | growth at 0.01 µM [20]: 23% | GI50 ([21]; read-out: GI50): < 0.01 µM | CC50 [21, 32]: 46.7 µM | TGI ([21]; read-out: TGI): 10.8 µM | GI50 ([21]; read-out: pGI50 (converted)): < 0.01 µM | CC50 [21, 33]: 46.8 µM | TGI ([21]; read-out: pTGI (converted)): 10.7 µM | growth at 10 µM [22]: 5% | growth at 10 µM [23]: -24% | growth at 0.01 µM [24]: 17% | growth at 100 µM [25]: -61% | growth at 1 µM [26]: 17% | growth at 10 µM [27]: -38% | growth at 0.1 µM [28]: 5% | growth at 0.01 µM [29]: 53% | growth at 10 µM [30]: 56% | growth at 10 µM [31]: -13%
